This passage reports melting point and Ki results from US7030145B2, “Pyridinyl derivatives for the treatment of depression” (Bristol-Myers Squibb Company, priority 2003, dated 2006).

Data set [1] has as its target T1, cloned human CRF-R1 receptors (Homo sapiens, UniProt P34998).
T1 construct: the coding region was amplifies by PCR from start to stop codons; expressed in transfected cells; membranes
T1 sequence (P34998 24-415): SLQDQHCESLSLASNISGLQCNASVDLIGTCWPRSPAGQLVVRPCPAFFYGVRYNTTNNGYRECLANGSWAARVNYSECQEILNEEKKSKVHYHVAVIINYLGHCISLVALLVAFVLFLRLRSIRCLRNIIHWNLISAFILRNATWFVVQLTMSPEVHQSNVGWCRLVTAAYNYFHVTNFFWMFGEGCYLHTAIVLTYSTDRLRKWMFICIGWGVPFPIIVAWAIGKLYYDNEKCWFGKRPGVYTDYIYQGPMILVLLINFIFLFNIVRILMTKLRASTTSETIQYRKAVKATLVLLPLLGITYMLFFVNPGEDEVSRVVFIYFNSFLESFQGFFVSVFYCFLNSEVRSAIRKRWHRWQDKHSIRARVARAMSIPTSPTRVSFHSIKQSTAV
In words: CRF-R1 receptor binding assay (inhibition of 125I-ovine-CRF binding to cell membranes). To be noted: membranes of 293EBNA cells transfected with hCRFR1, class d = reported as percent inhibition at 10 μM, figures not given, read-out: activity (Ki class in the CRF assays). From the text:
The following is a description of the isolation of cell membranes containing cloned human CRF-R1 receptors for use in a standard binding assay as well as a description of the assay itself.
Messenger RNA was isolated from human hippocampus. […]. The mRNA was reverse transcribed using oligo (dt) 12–18 and the coding region was amplifies by PCR from start to stop codons. The resulting PCR fragment was cloned into the EcoRV site of pGEMV, from whence the insert was reclaimed using XhoI+XbaI and cloned into the XhoI+XbaI sites of vector pm3 as (which contains a CMV promoter, the SV′t′ splice and early poly A signals, an Eptein-Barr viral origin of replication, and a hygromycin selectable marker). The resulting expression vector, called phchCRFR was transfected in 293EBNA cells and cells retaining the episome were selected in the presence of […] hygromycin. Cells surviving 4 weeks of selection in hygromycin were pooled, adapted to growth in suspension and used to generate membranes for the binding assay described below. Individual aliquots containing approximately 1×10^8 of the suspended cells were then centrifuged to form a pellet and frozen. For the binding assay a frozen pellet described above containing 293EBNA cells transfected with hCRFR1 receptors is homogenized in 10 mL of ice cold tissue buffer (50 mM HEPES buffer pH 7.0, containing 10 MM MgCl2, 2 mM EGTA, 1 μg/mL apotinin, 1 μg/mL leupeptin and 1 μg/mL pepstatin). The homoginate is centrifuged at 40,000×g for 12 min and the resulting pellet rehomogenized in 10 mL of tissue buffer. After another centrifugation at 40,000×g for 12 min, the pellet is resuspended to a protein concentration of 360 μg/mL to be used in the assay.
Binding assays are performed in 96 well plates; each well having a 300 μL capacity. To each well is added 50 μL of test drug dilutions (final concentration of drugs range from 10^−10–10^−5 M), 100 μL of ^125I-ovine-CRF (^125I-o-CRF) (final concentration 150 pM) and 150 μL of the cell homoginate described above. Plates are then allowed to incubate at room temperature for 2 hours before filtering the incubate over GF/F filters (presoaked with 0.3% polyethyleneimine) using an appropriate cell harvester. Filters are rinsed 2 times with ice cold assay buffer before removing individual filters and assessing them for radioactivity on a gamma counter.
Curves of the inhibition of ^125I-o-CRF binding to cell membranes at various dilutions of test drug are analyzed by the iterative curve fitting program LIGAND [P. J. Munson and D. Rodbard, Anal. Biochem., 107:220 (1980), which provides Ki values for inhibition which are then used to assess biological activity. […]
Messenger RNA was isolated from human hippocampus. The mRNA was isolated from human hippocampus. The mRNA was reverse transcribed using oligo (dt) 12–18 and the coding region was amplifies by PCR from start to stop codons. The resulting PCR fragment was cloned into the EcoRV site of pGEMV, from whence the insert was reclaimed using XhoI+XbaI and cloned into the XhoI+XbaI sites of vector pm3 as (which contains a CMV promoter, the SV′t′ splice and early poly A signals, an Eptein-Barr viral origin of replication, and a hygromycin selectable marker). The resulting expression vector, called phchCRFR was transfected in 293EBNA cells and cells retaining the episome were selected in the presence of […] hygromycin. Cells surviving 4 weeks of selection in hygromycin were pooled, adapted to growth in suspension and used to generate membranes for the binding assay described below. […]
A frozen pellet described above containing 293EBNA cells transfected with hCRFR1 receptors or the rat frontal cortex tissue dissected from frozen rat brains was prepared as the source of membranes expressing CRF1 receptors used in binding assays. […]

Structures are written as SMILES.

On to `Cc1cc(C)c(Nc2nc(C)ccc2S(=O)(=O)c2ccc(OCc3cc(Cl)nc(Cl)c3)cc2)c(C)c1` [Example 20, {3-[4-(2,6-Dichloropyridin-4-ylmethoxy)-benzenesulfonyl]-6-methylpyridin-2-yl}-(2,4,6-trimethylphenyl)-amine], for which the melting point was 192 to 201 °C. Further, the Ki in data set [1] lay in the range of 100 to 500 nM.
In the case of `Cc1cc(C)c(Nc2nc(C)ccc2S(=O)(=O)c2ccc(OCc3csc(C)n3)cc2)c(C)c1` [Example 21, {6-Methyl-3-[4-(2-methylthiazol-4-ylmethoxy)-benzenesulfonyl]-pyridin-2-yl}-(2,4,6-trimethylphenyl)-amine], the melting point lay within 200 to 201 °C. Moreover, in data set [1], the Ki was in the range of 100 to 500 nM.
Turning to `Cc1cc(C)c(Nc2nc(C)ccc2S(=O)(=O)c2ccc(OCc3ccc(F)cc3)cc2)c(C)c1` [Example 22, {3-[4-(4-Fluorobenzyloxy)-benzenesulfonyl]-6-methylpyridin-2-yl}-(2,4,6-trimethylphenyl)-amine], the melting point was 178 to 180 °C. The Ki in data set [1] was in the range of 100 to 500 nM.
The like results for `Cc1cc(C)c(Nc2nc(C)ccc2S(=O)(=O)c2ccc(OCc3ccc(C#N)cc3)cc2)c(C)c1` [Example 23, 4-{4-[6-Methyl-2-(2,4,6-trimethylphenylamino)-pyridine-3-sulfonyl]-phenoxymethyl}-benzonitrile] were, in that order, 208 to 210 °C and 100 to 500 nM.
For `Cc1cc(C)c(Nc2nc(C)ccc2S(=O)(=O)c2ccc(OCc3cccc(C#N)c3)cc2)c(C)c1` [Example 24, 3-{4-[6-Methyl-2-(2,4,6-trimethylphenylamino)-pyridine-3-sulfonyl]-phenoxymethyl}-benzonitrile], in that order: 155 to 158 °C and at most 100 nM.
For the molecule `COC(=O)c1cccc(COc2ccc(S(=O)(=O)c3ccc(C)nc3Nc3c(C)cc(C)cc3C)cc2)c1` [Example 25, 3-{4-[6-Methyl-2-(2,4,6-trimethylphenylamino)-pyridine-3-sulfonyl]-phenoxymethyl}-benzoic acid methyl ester], the melting point is 148 to 150 °C. For the same molecule, the Ki in data set [1] is at most 100 nM.
In the case of `COc1cccc(COc2ccc(S(=O)(=O)c3ccc(C)nc3Nc3c(C)cc(C)cc3C)cc2)c1` [Example 26, {3-[4-(3-Methoxybenzyloxy)-benzenesulfonyl]-6-methylpyridin-2-yl}-(2,4,6-trimethylphenyl)-amine], the melting point lay in the range of 124 to 126 °C. Besides, the Ki in data set [1] is at most 100 nM.
For `COc1ccccc1COc1ccc(S(=O)(=O)c2ccc(C)nc2Nc2c(C)cc(C)cc2C)cc1` [Example 27, {3-[4-(2-Methoxybenzyloxy)-benzenesulfonyl]-6-methylpyridin-2-yl}-(2,4,6-trimethylphenyl)-amine], in that order: 148 to 150 °C and at most 100 nM.
With `Cc1cc(C)c(Nc2nc(C)ccc2S(=O)(=O)c2ccc(OCc3ccccc3C#N)cc2)c(C)c1` [Example 28, 2-{4-[6-Methyl-2-(2,4,6-trimethylphenylamino)-pyridine-3-sulfonyl]-phenoxymethyl}-benzonitrile], the melting point was in the range of 208 to 210 °C. Further, the Ki in data set [1] was at most 100 nM.
Turning to `Cc1cc(C)c(Nc2nc(C)ccc2S(=O)(=O)c2ccc(OCc3ccccc3[N+](=O)[O-])cc2)c(C)c1` [Example 29, {6-Methyl-3-[4-(2-nitrobenzyloxy)-benzenesulfonyl]-pyridin-2-yl}-(2,4,6-trimethylphenyl)-amine], the melting point was 153 to 155 °C. Further, the Ki in data set [1] is at most 100 nM.
For `COc1cc(COc2ccc(S(=O)(=O)c3ccc(C)nc3Nc3c(C)cc(C)cc3C)cc2)cc(OC)c1` [Example 30, {3-[4-(3,5-Dimethoxybenzyloxy)-benzenesulfonyl]-6-methyl-pyridin-2-yl}-(2,4,6-trimethylphenyl)-amine], in that order: 107 to 109 °C and at most 100 nM.
